Measurements: paper PMC9917264, “Ca^2+-Triggered Coelenterazine-Binding Protein Renilla: Expected and Unexpected Features” (International Journal of Molecular Sciences, 2023)

Molecular target: T1, coelenterazine-binding apoprotein (apoCBP) (Renilla muelleri, UniProt C9V488)
T1 construct: gene CBP1; recombinant apoprotein, single chain, 21 kDa
T1 sequence (C9V488 1-186): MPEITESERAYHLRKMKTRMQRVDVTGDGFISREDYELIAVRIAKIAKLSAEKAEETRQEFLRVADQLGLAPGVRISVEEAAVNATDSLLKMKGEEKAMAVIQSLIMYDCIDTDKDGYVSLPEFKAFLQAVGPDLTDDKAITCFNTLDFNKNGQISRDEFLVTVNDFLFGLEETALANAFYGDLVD
Assay: absorption spectrum of the CBP complex
Details: Ca2+-free; noncovalent

Oc1ccc(Cc2nc3c(Cc4ccccc4)nc(-c4ccc(O)cc4)cn3c2O)cc1 [coelenterazine] was tested, and the “absorption spectrum of the CBP complex” value was “FMZ-apoCBP and CBP spectra obtained under the same conditions are practically identical”.
